Like-named read-outs stand apart in the source and are kept apart here.
Assays:
human group V sPLA2 [1] = molecular target: T1, human group V sPLA2 (Homo sapiens, UniProt P39877); test: Chromogenic assay for inhibitory activity, group V sPLA2 inhibition tests; type: biochemical
T1 construct: made in house; host or cells: CHO cells, stably transfected (pSVL vector); culture supernatant used
T1 sequence (P39877 21-138): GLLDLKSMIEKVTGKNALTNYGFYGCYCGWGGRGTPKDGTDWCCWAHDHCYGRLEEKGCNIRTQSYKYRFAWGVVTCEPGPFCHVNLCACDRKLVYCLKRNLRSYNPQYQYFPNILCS
From the text: (§1) A. Preparation of Cells Expressing Human Group V or X sPLA2 and Preparation of the Culture Supernatant Thereof
(§2) cDNA sequence encoding human group V or X sPLA2 (Chen et al., J. Biol. Chem, 1994, 269, 2365-2368; and Cupillard et al., J. Biol. Chem, 1997, 272, 15745-15752) was inserted in forward direction downstream the promoter of an expression vector for mammal cells, pSVL SV40 Late Promoter Expression Vector (Amersham Pharmacia Biotech). The expression vector was transfected into CHO host cells using a Lipofect AMINE regent (Gibco BRL) according to the instructions of the manufacturer to provide CHO cells stably expressing human group V or X sPLA2. The cells were incubated in a-MEM medium containing 10% fetal calf serum for 3 days, and the culture supernatant was used to determine the activity of the enzymes.
(§3) B. Assay for Inhibitory Activity
(§4) The following chromogenic assay is used to identify and evaluate inhibitors of group V or X sPLA2. The assay has been adapted for high volume screening using 96 well microtiter plates. A general description of this assay is found in the article, “Analysis of Human Synovial Fluid Phospholipase A2 on Short Chain Phosphatidylcholine-Mixed Micelles: Development of a Spectrophotometric Assay Suitable for a Microtiterplate Reader”, by Laure. J. Reynolds, Lori L. Hughes and Edward A Dennis, Analytical Biochemistry, 204, pp 190-197, 1992.
(§5) A test compound (or a solvent blank) was added according to the predetermined arrangement of the plate, and diheptanoyl thio PC (1 mM) was reacted with human group V or X sPLA2 in the presence of Triton X-100 (0.3 mM), 5,5′-dithiobis-(2-nitrobenzoic acid) (125 μM) in a Tris buffer (25mM, pH7.3), CaCl2 (10 mM), KCl (100 mM), bovine serum albumin. Absorbance at 405 nm is read to estimate the inhibitory activity.
(§6) The reaction with human group V sPLA2 was performed in 40 μl/well at 40° C. for 45 minutes, and the reaction with human group X sPLA2 was performed in 15 μl/well at 40° C. for 30 minutes.

human group X sPLA2 [2] = molecular target: T2, human group X sPLA2 (Homo sapiens, UniProt O15496); test: Chromogenic assay for inhibitory activity, group X sPLA2 inhibition tests; type: biochemical; parameters: made in house; host or cells: CHO cells, stably transfected (pSVL vector); culture supernatant used
T2 sequence (O15496 43-165): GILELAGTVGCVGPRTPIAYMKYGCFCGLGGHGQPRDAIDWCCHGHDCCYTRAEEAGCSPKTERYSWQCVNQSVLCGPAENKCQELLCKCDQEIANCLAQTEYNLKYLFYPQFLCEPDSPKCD
From the text: as §1, §2, §3, §4, §5, §6

[3] = tested on: mouse peritoneal macrophages; test: Uptake of LDL into mouse peritoneal macrophages induced by group X sPLA2 (Oil Red O stain); type: cell-based; details: agent 10 μmol/L; 0.2 mg/ml LDL, 50 nmol/L group X sPLA2, 48 hours
Description: C57BL/6J mice (male, 8 weeks) were injected peritoneally with 2 ml of a 4% thioglycollate solution, and, 4 days later, the cells from the peritoneal fluids were harvested. The cells were plated on a chamber slide, and incubated for 2 hours in the presence of the serum-free medium (BIO […]: X-VIVO 15). Then, non-adherent cells were removed by the washing procedure to prepare peritoneal macrophages. The cells were added with 0.2 mg/ml LDL (Sigma) and 50 nmol/L group X PLA2, and incubated in the serum-free medium for 48 hours. Uptake of LDL into macrophages were confirmed by immobilizing the cells with 4% formaldehyde for 20 minutes, and then staining the lipids with an Oil Red O stain solution.

human group X sPLA2 [4] = molecular target: T2, human group X sPLA2; test: Fatty acid release from isolated human lipoproteins induced by group X sPLA2; type: biochemical; details: agent 10 μmol/L, added with sPLA2; arachidonic acid from LDL (FIG. 2)
Description: LDL and HDL were isolated from human plasma by ultracentrifugation (Havel, et al., J. Clin. Invest. 34, 1345-1353 (1955)). Human group IB, IIA and X sPLA2s (0.5 nmol/L to 500 nmol/L) were reacted with LDL and HDL (0.35-1 mg/ml) at 37° C. in a solution containing 12.5 mmol/L Tris-HCL buffer (pH 8.0), 125 mg/L bovine serum albumin, and 1 mmol/L calcium chloride. The fatty acids released from the lipoproteins were extracted according to the method of Dole (Dole, et al., J. Biol. Chem. 235, 2595-2599 (1960)), and were labeled with 9-anthryldiazomethane by the known method (Hanasaki, et al., J. Biol. Chem. 274, 34203-34211 (1999)). Then, the released fatty acids were determined by detecting fluorescence of the labeled products (fatty acids) eluted from high performance liquid chromatography (HPLC) on reverse-phase column (LichroCART 125-4 Superspher 100 RP-18 columnmol/Merck). In order to examine does-dependent release of fatty acids induced by each sPLA2, the lipoprotein was reacted with 0.5, 5, 50, and 500 nmol/L group X sPLA2, and 50 and 500 nmol/L group IB and IIA sPLA2 for 60 minutes. Further, in order to examine time-dependent fatty acid release induced by sPLA2, each 50 nmol/L sPLA2 was used, and the change in the release with time course was traced during the period time of 4 hours after the sPLA2 addition. In the experiment for determining the inhibitory activity of a sPLA2 inhibitor (indoxam; Yokota, et al., Biochim. Biophys. Acta 1438, 213-222 (1999)), a cyclooxygenase (COX) inhibitor (indomethacin) or a 5-lipoxygenase (5-LOX) inhibitor (AA-861; 2,3,5-trimethyl-6-(12-hydroxy-5,10-dodecadiynyl)-1,4-benzoquinone (Yoshimoto, et al., Biochem. Biophys. Acta. 713, 470-473 (1982)), those agents were added to the reaction giving a final concentration of 10 μmol/L, virtually simultaneously with the addition of sPLA2.

human group X sPLA2 [5] = molecular target: T2, human group X sPLA2; test: Negative charge of isolated human lipoproteins (agarose gel electrophoresis) after group X sPLA2; type: biochemical; details: agent 10 μmol/L; LDL and HDL, 50 nmol/L sPLA2
Description: LDL and HDL were isolated from human plasma by ultracentrifugation (Havel, et al., J. Clin. Invest. 34, 1345-1353 (1955)). Human group IB, IIA and X sPLA2s (50 nmol/L) and CuSO4 (20 μmol/L) were reacted with LDL and HDL (1 mg/ml) at 37° C. for 3, 6, and 24 hours in a solution containing 12.5 mmol/L Tris-HCL buffer (pH 8.0), 125 mg/L bovine serum albumin, and 1 mmol/L calcium chloride. Then, a 1 μg sample of LDL and a 2 μg sample of HDL were electrophoresed on agarose gel (Helena Laboratories, TITAN GEL Lipoprotein; 90V, 25 minutes). After the electrophoresis, the gel was dried at 50 to 60° C. for about 1 hour, stained with 6 ml of a stain solution (Helena Laboratories, Fat Red 7B agarose solution) for about 3 minutes, and then decolorized with 25 ml of a decolorizing solution (70% methanol). In the experiment for determining the activity of a sPLA2 inhibitor (indoxam), a COX inhibitor (indomethacin) or a 5-LOX inhibitor (AA-861), those agents were added to the reaction giving a final concentration of 10 μmol/L, virtually simultaneously with the addition of sPLA2.

human group V sPLA2 [6] = molecular target: T1, human group V sPLA2; test: Degeneration (negative charge, agarose gel electrophoresis) of isolated human lipoproteins by group V sPLA2; type: biochemical; details: agent 10 μmol/L; LDL and HDL, 50 nmol/L sPLA2
Description: LDL and HDL were isolated from human plasma by ultracentrifugation (Havel, et al., J. Clin. Invest. 34, 1345-1353 (1955)). Human group IIA and V sPLA2s (50 nmol/L) were reacted with LDL and HDL (1 mg/ml) at 37° C. for 3, 6, and 24 hours in a solution containing 12.5 mmol/L Tris-HCL buffer (pH 8.0), 125 mg/L bovine serum albumin, and 1 mmol/L calcium chloride, and then 1 μg of the LDL and 2 μg of the HDL were spotted on an agarose gel (Helena Laboratories, TITAN GEL Lipoprotein), followed by being electrophoresed at 90V for 25 minutes. After the electrophoresis, the gels were dried at 50 to 60° C. for about one hour, stained with 6 ml of a stain solution (Helena Laboratories, Fat Red 7B agarose solution) for about three minutes, and then decolorized with 25 ml of a decolorizing solution (70% methanol).

human group V sPLA2 [7] = molecular target: T1, human group V sPLA2; test: Fatty acid (linoleic acid) release from isolated human lipoproteins induced by group V sPLA2; type: biochemical; details: agent 10 μmol/L; from LDL (FIG. 8)
Description: LDL and HDL were isolated from human plasma by ultracentrifugation (Havel, et al., J. Clin. Invest. 34, 1345-1353 (1955)). […] Biol. Chem. 235, 2595-2599 (1960)). The fatty acids were labeled with 9-anthryldiazomethane by the known method ([…], et al., J. Biol. Chem. 274, 34203-34211 (1999)), and then were determined by detecting fluorescence of the labeled products (fatty acids) eluted from high performance liquid chromatography (HPLC) on reverse-phase column (LichroCART 125-4 Superspher 100 RP-18 column, Merck).

[8] = diheptanoyl thio PC 1 mM, 40° C., 45 minutes, absorbance at 405 nm, read-out: IC50 group V sPLA2 inhibition
[9] = diheptanoyl thio PC 1 mM, 40° C., 30 minutes, absorbance at 405 nm, read-out: IC50 group X sPLA2 inhibition

IC50 (human group V sPLA2 [1]; [8]) [nM]	IC50 (human group X sPLA2 [2]; [9]) [nM]	Structure (SMILES)	further results
2	–	NC(=O)C1=CCCc2c1c1c(OCC(=O)O)cccn1c2Cc1ccccc1 [Compound 7]	–
5	–	CCc1c(C(=O)C(N)=O)c2c(OCC(=O)O)nc(-c3ccccc3)cn2c1Cc1ccccc1 [Compound 3]	–
8	–	NC(=O)c1cccc2c1c1c(OCC(=O)O)cccc1n2Cc1ccccc1 [Compound 23]	–
–	16	CCc1c(C(=O)C(N)=O)c2c(OCC(=O)O)nc(C)cn2c1Cc1ccc(-c2ccccc2)cc1 [Compound 12]	–
13	–	CCc1c(C(=O)C(N)=O)c2c(OCC(=O)O)nc(C)cn2c1Cc1ccccc1Cc1ccccc1 [Compound 2]	–
5	–	CCc1ccc(-c2ccccc2Cc2c(CC)c(C(=O)C(N)=O)c3c(OCC(=O)O)nc(C)cn23)s1 [Compound 21]	–
–	19	CCc1c(CC(N)=O)c2c(OCC(=O)O)nc(C)cn2c1Cc1ccc(F)cc1 [Compound 13]	–
–	–	CC(Cc1ccc(O)c(O)c1)C(C)Cc1ccc(O)c(O)c1 (stereo not shown) [NDGA]	Effect on group X sPLA2-induced uptake of LDL into the cells [3]: affected neither
11	–	CCc1c(C(=O)C(N)=O)c2c(OCC(=O)O)nc(C)cn2c1Cc1ccccc1CC1CCCCC1 [Compound 20]	–
1	13	NC(=O)c1cccc2c1c1c(OCC(=O)O)cccc1n2Cc1cccc(Oc2ccccc2)c1 [Compound 9]	–
–	–	CCc1c(C(=O)C(N)=O)c2c(OCC(=O)O)cccc2n1Cc1ccccc1-c1ccccc1 [Compound 19]	IC50 (human group X sPLA2 [2]): 26 nM; IC50 (human group V sPLA2 [1]): 6 nM
–	9	CCc1c(C(=O)C(N)=O)c2c(OCC(=O)O)nc(C)cn2c1Cc1ccccc1C1CCCC1 [Compound 14]	–
–	–	CC1=C(C)C(=O)C(CCCCC#CCCCC#CCO)=C(C)C1=O [AA-861, 2,3,5-trimethyl-6-(12-hydroxy-5,10-dodecadiynyl)-1,4-benzoquinone]	Effect on fatty acid release induced by group X sPLA2 (human group X sPLA2 [4]): affected neither; Effect on lipoprotein degeneration (increase in negative charge) induced by group X sPLA2 (human group X sPLA2 [5]): affected neither
–	–	COc1ccc2c(c1)c(CC(=O)O)c(C)n2C(=O)c1ccc(Cl)cc1 [indomethacin]	Effect on group X sPLA2-induced uptake of LDL into the cells [3]: affected neither; Effect on fatty acid release induced by group X sPLA2 (human group X sPLA2 [4]): affected neither; Effect on lipoprotein degeneration induced by group V sPLA2 (human group V sPLA2 [6]): not affected; Effect on linoleic acid release induced by group V sPLA2 (human group V sPLA2 [7]): not affected; Effect on lipoprotein degeneration (increase in negative charge) induced by group X sPLA2 (human group X sPLA2 [5]): affected neither
7	12	NC(=O)c1cccc2c1c1c(OCC(=O)O)ccc(F)c1n2Cc1ccccc1 [Compound 10]	–
13	–	CCc1c(C(=O)C(N)=O)c2c(OCC(=O)O)nc(C)cn2c1Cc1ccccc1-c1ccc(C)s1 [Compound 22]	–
–	17	CCCc1c(C(=O)C(N)=O)c2c(OCC(=O)O)nc(C)cn2c1Cc1ccc(F)cc1 [Compound 15]	–
–	–	CCc1c(C(=O)C(N)=O)c2c(OCC(=O)O)cccn2c1Cc1ccccc1-c1ccccc1 [indoxam]	Effect on group X sPLA2-induced uptake of LDL into the cells [3]: inhibited; Effect on fatty acid release induced by group X sPLA2 (human group X sPLA2 [4]): inhibited; Effect on lipoprotein degeneration induced by group V sPLA2 (human group V sPLA2 [6]): inhibited; Effect on linoleic acid release induced by group V sPLA2 (human group V sPLA2 [7]): inhibited; Effect on lipoprotein degeneration (increase in negative charge) induced by group X sPLA2 (human group X sPLA2 [5]): inhibited
12	–	CCc1c(C(=O)C(N)=O)c2c(OCC(=O)O)nc(C)cn2c1Cc1cccc(-c2ccccc2)c1 [Compound 1]	–
3	3	NC(=O)c1cccc2c1c1c(OCC(=O)O)cccc1n2CC1CCCCC1 [Compound 8]	–
2	–	NC(=O)c1cccc2c1c1c(OCC(=O)O)cc(-c3ccco3)cc1n2Cc1ccccc1 [Compound 11]	–

From patent US20040248898A1, “Remedies for arteriosclerosis” (priority 2001, published 2004)
